Measurements: patent US10953012B2, “Heterocyclic compounds for the inhibition of pask” (BioEnergenix LLC, priority 2011, dated 2021)

Experiments:
PASK [1] = biological target: PASK (UniProt #Q96RG2; residues 879-1323) (Homo sapiens (Human), UniProt Q96RG2); assay: PASK ATP Radiochemical Assay; format: biochemical; settings: 33P-ATP radiochemical assay; read-out: IC50 Kinase Domain
Procedure, shortened: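 Radiometric kinase assay: GST-tagged PASK (5 nM final) from insect cells with Myelin Basic Protein (20 μM) in HEPES pH 7.5 buffer, 1% DMSO; reaction started with ^33P-ATP, 120 min at room temperature. Substrate phosphorylation captured on P81 paper and read by scintillation counting.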

PASK [2] = biological target: PASK (Homo sapiens (Human), UniProt Q96RG2); assay: PAS Kinase FRET Assay; format: biochemical; settings: TR-FRET assay; read-out: IC50 Kinase Domain
Procedure, shortened: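 Reaction buffer: 50 mM HEPES, 10 mM MgCl2, 1 mM EGTA, 2 mM DTT, 0.01% Tween-20. Test compounds (eleven-point series prepared at 4× final) preceded PASK and substrate/ATP. Reaction ran 2 h at 25 °C in the dark, then stopped. Phospho-ULight peptide detected by Eu-antibody TR-FRET, 665/615 nm ratio.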

CK2a2 = CK2a2 (Homo sapiens (Human), UniProt P19784); assay: Biochemical Assay for CK2 Activity; settings: 33P-ATP radiochemical assay; read-out: IC50 CK2 a2
Procedure, shortened: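 GST-tagged full-length human CK2a2 from insect cells (1.2 nM) with 20 μM RRRDDDSDDD peptide, in pH 7.5 HEPES buffer with MgCl2, DTT and 1% DMSO. Reactions started with ³³P-ATP were run for 120 min at room temperature. Substrate phosphorylation was measured by P81 phosphocellulose filter binding and scintillation counting.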

Measured: IC50

Sequence of PASK (UniProt #Q96RG2; residues 879-1323) (Homo sapiens (Human), UniProt Q96RG2) (Q96RG2 879-1323): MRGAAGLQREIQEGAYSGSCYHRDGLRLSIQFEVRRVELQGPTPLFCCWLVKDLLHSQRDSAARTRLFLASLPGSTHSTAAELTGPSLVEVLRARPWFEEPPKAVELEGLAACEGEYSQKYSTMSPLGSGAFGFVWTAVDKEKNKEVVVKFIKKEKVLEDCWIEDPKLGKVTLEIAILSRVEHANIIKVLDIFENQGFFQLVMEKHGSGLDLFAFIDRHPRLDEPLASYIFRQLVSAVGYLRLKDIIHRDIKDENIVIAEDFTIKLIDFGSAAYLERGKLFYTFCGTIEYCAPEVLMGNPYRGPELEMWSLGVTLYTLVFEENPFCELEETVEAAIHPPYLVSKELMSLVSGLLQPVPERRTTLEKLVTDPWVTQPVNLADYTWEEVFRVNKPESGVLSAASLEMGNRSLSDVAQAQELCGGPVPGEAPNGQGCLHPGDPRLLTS
Sequence of CK2a2 (P19784 whole entry): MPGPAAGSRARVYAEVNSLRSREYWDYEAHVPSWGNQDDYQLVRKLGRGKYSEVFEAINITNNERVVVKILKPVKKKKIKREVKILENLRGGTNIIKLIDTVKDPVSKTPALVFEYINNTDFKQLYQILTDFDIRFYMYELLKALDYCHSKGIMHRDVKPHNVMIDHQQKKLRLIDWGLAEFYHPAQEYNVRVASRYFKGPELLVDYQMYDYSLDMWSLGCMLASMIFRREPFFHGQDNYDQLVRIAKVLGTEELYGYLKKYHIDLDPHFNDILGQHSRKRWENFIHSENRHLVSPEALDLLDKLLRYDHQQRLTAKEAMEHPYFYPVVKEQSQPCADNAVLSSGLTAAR
Sequence of PASK (Homo sapiens (Human), UniProt Q96RG2) (Q96RG2 999-1251): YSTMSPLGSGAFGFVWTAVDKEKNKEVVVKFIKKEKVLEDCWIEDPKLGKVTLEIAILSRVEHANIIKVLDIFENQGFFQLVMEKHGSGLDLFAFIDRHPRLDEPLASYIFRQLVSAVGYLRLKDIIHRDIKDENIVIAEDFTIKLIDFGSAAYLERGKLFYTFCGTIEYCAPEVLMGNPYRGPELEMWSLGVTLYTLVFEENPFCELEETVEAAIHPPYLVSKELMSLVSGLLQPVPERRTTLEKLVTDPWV

CCCNC(=O)c1c(N)nn2c(=O)cc(-c3ccc4c(cnn4C)c3)[nH]c12 [Example 197, 2-Amino-5-(1-methyl-1H-indazol-5-yl)-7-oxo-N-propyl-4,7-dihydropyrazolo[1,5-a]pyrimidine-3-carboxamide]
≤ 10 µM: all assays above

CCCNC(=O)c1c(N)nn2c(=O)cc(-c3ccc4[nH]ncc4c3)[nH]c12 [Example 198, 2-Amino-5-(1H-indazol-5-yl)-7-oxo-N-propyl-4,7-dihydropyrazolo[1,5-a]pyrimidine-3-carboxamide]
≤ 10 µM: all assays above

Nc1nn2c(=O)cc(-c3ccc4[nH]nnc4c3)[nH]c2c1-c1ccccc1 [Example 199, 2-Amino-5-(1H-benzo[d][1,2,3]triazol-5-yl)-3-phenylpyrazolo[1,5-a]pyrimidin-7(4H)-one]
≤ 10 µM: all assays above

CCc1nn2c(=O)cc(-c3ccc4[nH]nnc4c3)[nH]c2c1-c1ccccn1 [Example 201, 5-(1H-benzo[d][1,2,3]triazol-5-yl)-2-ethyl-3-(pyridin-2-yl)pyrazolo[1,5-a]pyrimidin-7(4H)-one]
≤ 10 µM: all assays above

CC(=O)Nc1nn2c(=O)cc(-c3ccc4c(cnn4C)c3)[nH]c2c1-c1ccccn1 [Example 205, N-(5-(1-Methyl-1H-indazol-5-yl)-7-oxo-3-(pyridin-2-yl)-4,7-dihydropyrazolo[1,5-a]pyrimidin-2-yl)acetamide]
≤ 10 µM: all assays above

Cc1nn2c(=O)cc(-c3ccc4c(c3)OCO4)[nH]c2c1Cc1ccccn1 [Example 210, 5-(Benzo[d][1,3]dioxol-5-yl)-2-methyl-3-(pyridin-2-ylmethyl)pyrazolo[1,5-a]pyrimidin-7(4H)-one]
≤ 10 µM: all assays above

O=c1cc(-c2ccc3[nH]nnc3c2)[nH]c2c(-c3cccnc3)cnn12 [Example 213, 5-(1H-Benzo[d][1,2,3]triazol-5-yl)-3-(pyridin-3-yl)pyrazolo[1,5-a]pyrimidin-7(4H)-one]
≤ 10 µM: all assays above

CCCNC(=O)c1cnn2c(=O)cc(-c3ccc4[nH]nnc4c3)[nH]c12 [Example 214, 5-(1H-Benzo[d][1,2,3]triazol-5-yl)-7-oxo-N-propyl-4,7-dihydropyrazolo[1,5-a]pyrimidine-3-carboxamide]
≤ 10 µM: all assays above

Nc1nn2c(=O)cc(-c3ccc4[nH]nnc4c3)[nH]c2c1-c1ccc(Cl)cc1 [Example 217, 2-Amino-5-(1H-benzo[d][1,2,3]triazol-5-yl)-3-(4-chlorophenyl)pyrazolo[1,5-a]pyrimidin-7(4H)-one]
≤ 10 µM: all assays above

O=c1cc(-c2ccc3[nH]nnc3c2)[nH]c2c(-c3ccc(Cl)cc3)cnn12 [Example 218, 5-(1H-Benzo[d][1,2,3]triazol-5-yl)-3-(4-chlorophenyl)pyrazolo[1,5-a]pyrimidin-7(4H)-one]
≤ 10 µM: all assays above

CCCNC(=O)c1c(N)nn2c(=O)cc(-c3ccc4[nH]nnc4c3)[nH]c12 [Example 223, 2-Amino-5-(1H-benzo[d][1,2,3]triazol-5-yl)-7-oxo-N-propyl-4,7-dihydropyrazolo[1,5-a]pyrimidine-3-carboxamide]
≤ 10 µM: all assays above
